In patent publication US9226500B2, “Pesticidal compositions and processes related thereto” (Dow AgroSciences LLC, priority 2012, dated 2016):

System: Beet Armyworm (Spodoptera exigua)
Test: Bioassay on Beet Armyworm (BAW), 128-well diet tray assay
Assay type: in vivo
Conditions: Table 3, Assays Results Part 1
Description: Certain molecules disclosed in this document were tested against BAW, CEW and CL using procedures described in the following examples. In the reporting of the results, the “BAW & CEW & CL Rating Table” was used (See Table Section).
Bioassays on BAW (Spodoptera exigua)
Bioassays on BAW were conducted using a 128-well diet tray assay. One to five second instar BAW larvae were placed in each well (3 mL) of the diet tray that had been previously filled with 1 mL of artificial diet to which 50 μg/cm^2 of the test compound (dissolved in 50 μL of 90:10 acetone-water mixture) had been applied (to each of eight wells) and then allowed to dry. Trays were covered with a clear self-adhesive cover, and held at 25° C., 14:10 light-dark for five to seven days. Percent mortality was recorded for the larvae in each well; activity in the eight wells was then averaged. The results are indicated in the tables entitled “Table 3: Assay Results Part 1” and “Table 4: Assay Results Part 2” (See Table Section).

Row | Compound | BAW Rating
1 | Cc1cc(/C=C/C(c2cc(Cl)cc(Cl)c2)C(F)(F)F)ccc1C(=O)NCc1ccc(Cl)nc1 (stereo not shown) [AC7] | A (50-100)
2 | Cc1cc(/C=C/C(c2cc(Cl)cc(Cl)c2)C(F)(F)F)ccc1C(=O)NCc1ccccc1F (stereo not shown) [AC9] | A (50-100)
3 | Cc1cc(/C=C/C(c2cc(Cl)cc(Cl)c2)C(F)(F)F)ccc1C(=O)NC1CSC1 (stereo not shown) [AC10] | A (50-100)
4 | Cc1cc(/C=C/C(c2cc(Cl)cc(Cl)c2)C(F)(F)F)ccc1C(=O)NCc1ccccc1 (stereo not shown) [AC11] | A (50-100)
5 | Cc1cc(/C=C/C(c2cc(Cl)cc(Cl)c2)C(F)(F)F)ccc1C(=O)NCc1ccccn1 (stereo not shown) [AC12] | A (50-100)
6 | Cc1cc(/C=C/C(c2cc(Cl)cc(Cl)c2)C(F)(F)F)ccc1C(=O)NC1CS(=O)(=O)C1 (stereo not shown) [AC13] | A (50-100)
7 | Cc1cc(/C=C/C(c2cc(Cl)cc(Cl)c2)C(F)(F)F)ccc1C(=O)NCc1cnc(Cl)s1 (stereo not shown) [AC15] | A (50-100)
8 | Cc1cc(/C=C/C(c2cc(Cl)cc(Cl)c2)C(F)(F)F)ccc1C(=O)NC(C)(C)c1ccccn1 (stereo not shown) [AC16] | A (50-100)
9 | Cc1cc(/C=C/C(c2cc(Cl)cc(Cl)c2)C(F)(F)F)ccc1C(=O)NNc1ccccc1F (stereo not shown) [AC17] | A (50-100)
10 | Cc1cc(/C=C/C(c2cc(Cl)cc(Cl)c2)C(F)(F)F)ccc1C(=O)NCc1ncccn1 (stereo not shown) [AC18] | A (50-100)
11 | Cc1cc(/C=C/C(c2cc(Cl)cc(Cl)c2)C(F)(F)F)ccc1C(=O)NCc1ccoc1 (stereo not shown) [AC20] | A (50-100)
12 | Cc1cc(/C=C/C(c2cc(Cl)c(Cl)c(Cl)c2)C(F)(F)F)ccc1C(=O)NCc1ccc(Cl)nc1 (stereo not shown) [AC22] | A (50-100)
13 | Cc1cc(/C=C/C(c2cc(Cl)c(Cl)c(Cl)c2)C(F)(F)F)ccc1C(=O)NC1CSC1 (stereo not shown) [AC23] | A (50-100)
14 | Cc1cc(/C=C/C(c2cc(Cl)c(Cl)c(Cl)c2)C(F)(F)F)ccc1C(=O)NCc1cnc(Cl)s1 (stereo not shown) [AC26] | A (50-100)
15 | Cc1cc(/C=C/C(c2cc(Cl)c(Cl)c(Cl)c2)C(F)(F)F)ccc1C(=O)NC(C)(C)c1ccccn1 (stereo not shown) [AC27] | A (50-100)
16 | O=C(NCc1ccc(Cl)nc1)c1ccc(/C=C/C(c2cc(Cl)c(Cl)c(Cl)c2)C(F)(F)F)cc1Cl (stereo not shown) [AC28] | A (50-100)
17 | O=C(NC1CSC1)c1ccc(/C=C/C(c2cc(Cl)c(Cl)c(Cl)c2)C(F)(F)F)cc1Cl (stereo not shown) [AC29] | A (50-100)
18 | O=C(NC1CS(=O)(=O)C1)c1ccc(/C=C/C(c2cc(Cl)c(Cl)c(Cl)c2)C(F)(F)F)cc1Cl (stereo not shown) [AC30] | A (50-100)
19 | O=C(NCc1ccc(Cl)nc1)c1ccc(/C=C/C(c2cc(Cl)c(Cl)c(Cl)c2)C(F)(F)F)cc1Br (stereo not shown) [AC31] | A (50-100)
20 | O=C(NC1CSC1)c1ccc(/C=C/C(c2cc(Cl)c(Cl)c(Cl)c2)C(F)(F)F)cc1Br (stereo not shown) [AC32] | A (50-100)

Row | Compound | BAW Rating
21 | O=C(NC1CS(=O)(=O)C1)c1ccc(/C=C/C(c2cc(Cl)c(Cl)c(Cl)c2)C(F)(F)F)cc1Br (stereo not shown) [AC33] | A (50-100)
22 | O=C(NC1CSC1)c1ccc(/C=C/C(c2cc(Cl)c(Cl)c(Cl)c2)C(F)(F)F)cc1C(F)(F)F (stereo not shown) [AC34] | A (50-100)
23 | O=C(NC1CS(=O)(=O)C1)c1ccc(/C=C/C(c2cc(Cl)c(Cl)c(Cl)c2)C(F)(F)F)cc1C(F)(F)F (stereo not shown) [AC35] | A (50-100)
24 | O=C(NCc1ccc(Cl)nc1)c1ccc(/C=C/C(c2cc(Cl)c(Cl)c(Cl)c2)C(F)(F)F)cc1C(F)(F)F (stereo not shown) [AC36] | A (50-100)
25 | Cc1cc(/C=C/C(c2ccc(Cl)c(Cl)c2)C(F)(F)F)ccc1C(=O)NCc1ccc(Cl)nc1 (stereo not shown) [AC37] | A (50-100)
26 | Cc1cc(/C=C/C(c2cc(Cl)c(F)c(Cl)c2)C(F)(F)F)ccc1C(=O)NCc1ccc(Cl)nc1 (stereo not shown) [AC38] | A (50-100)
27 | Cc1cc(/C=C/C(c2cc(Cl)cc(Cl)c2)C(F)(F)F)ccc1C(=O)NCc1cncnc1 (stereo not shown) [AC39, 4-((E)-3-(3,5-Dichlorophenyl)-4,4,4-trifluorobut-1-enyl)-2-methyl-N-((pyrimidin-5-yl)methyl)benzamide] | A (50-100)
28 | Cc1cc(/C=C/C(c2cc(Cl)cc(Cl)c2)C(F)(F)F)ccc1C(=O)NCC(=O)NC1CC1 (stereo not shown) [AC40] | A (50-100)
29 | Cc1cc(/C=C/C(c2cc(Cl)cc(Cl)c2)C(F)(F)F)ccc1C(=O)NCC(=O)NC1CSC1 (stereo not shown) [AC41] | A (50-100)
30 | Cc1cc(/C=C/C(c2cc(Cl)cc(Cl)c2)C(F)(F)F)ccc1C(=O)NCc1nc2ccccc2s1 (stereo not shown) [AC42] | A (50-100)
31 | Cc1cc(/C=C/C(c2cc(Cl)cc(Cl)c2)C(F)(F)F)ccc1C(=O)NCc1cnccn1 (stereo not shown) [AC43] | A (50-100)
32 | Cc1cc(/C=C/C(c2cc(Cl)cc(Cl)c2)C(F)(F)F)ccc1C(=O)NN(C)c1ccccc1F (stereo not shown) [AC45] | A (50-100)
33 | Cc1cc(/C=C/C(c2cc(Cl)cc(Cl)c2)C(F)(F)F)ccc1C(=O)NCc1ccc(Cl)cc1 (stereo not shown) [AC48] | A (50-100)
34 | O=C(NCc1ccc(Cl)nc1)c1ccc(/C=C/C(c2cc(Cl)cc(Cl)c2)C(F)(F)F)cc1F (stereo not shown) [AC49] | A (50-100)
35 | Cc1cc(/C=C/C(c2cc(Cl)cc(Cl)c2)C(F)(F)F)ccc1C(=O)NCc1nccn1C (stereo not shown) [AC50] | A (50-100)
36 | Cc1cc(/C=C/C(c2cc(Cl)cc(Cl)c2)C(F)(F)F)ccc1C(=O)NCC(=O)N(C)CC(F)(F)F (stereo not shown) [AC51] | A (50-100)
37 | Cc1cc(/C=C/C(c2cc(Cl)c(F)c(Cl)c2)C(F)(F)F)ccc1C(=O)NC1CCOCC1 (stereo not shown) [AC52] | A (50-100)
38 | Cc1cc(/C=C/C(c2cc(Cl)c(F)c(Cl)c2)C(F)(F)F)ccc1C(=O)NCc1ccc(Cl)cn1 (stereo not shown) [AC53] | A (50-100)
39 | Cc1cc(/C=C/C(c2cc(Cl)c(F)c(Cl)c2)C(F)(F)F)ccc1C(=O)NCc1ccnc(Cl)c1 (stereo not shown) [AC54] | A (50-100)
40 | CC(C)(C)OC(=O)CNC(=O)c1ccc(/C=C/C(c2cc(Cl)c(Cl)c(Cl)c2)C(F)(F)F)cc1Br (stereo not shown) [AC58] | A (50-100)

Row | Compound | BAW Rating
41 | Cc1cc(/C=C/C(c2cc(Cl)cc(Cl)c2)C(F)(F)F)ccc1C(=O)Nc1ccc(Cl)nc1 (stereo not shown) [AC59] | A (50-100)
42 | O=C(NC1CSC1)c1ccc(/C=C/C(c2cc(Cl)cc(Cl)c2)C(F)(F)F)cc1F (stereo not shown) [AC61] | A (50-100)
43 | O=C(CNC(=O)c1ccc(/C=C/C(c2cc(Cl)cc(Cl)c2)C(F)(F)F)cc1F)NCC(F)(F)F (stereo not shown) [AC62] | A (50-100)
44 | O=C(NCc1ccc(Cl)nc1)c1ccc(/C=C/C(c2cc(Cl)c(F)c(Cl)c2)C(F)(F)F)cc1Br (stereo not shown) [AC63] | A (50-100)
45 | O=C(CNC(=O)c1ccc(/C=C/C(c2cc(Cl)c(Cl)c(Cl)c2)C(F)(F)F)cc1Cl)NCC(F)(F)F (stereo not shown) [AC64, (E)-2-Chloro-N-(2-oxo-2-((2,2,2-trifluoroethyl)amino)ethyl)-4-(4,4,4-trifluoro-3-(3,4,5-trichlorophenyl)but-1-en-1-yl)benzamide] | A (50-100)
46 | O=C(NCc1ccc(Cl)nc1)c1ccc(/C=C/C(c2cc(Cl)c(F)c(Cl)c2)C(F)(F)F)cc1F (stereo not shown) [AC65] | A (50-100)
47 | O=C(CNC(=O)c1ccc(/C=C/C(c2cc(Cl)c(Cl)c(Cl)c2)C(F)(F)F)cc1Br)NCC(F)(F)F (stereo not shown) [AC66] | A (50-100)
48 | O=C(NC1CSC1)c1ccc(/C=C/C(c2cc(Cl)c(F)c(Cl)c2)C(F)(F)F)cc1F (stereo not shown) [AC67] | A (50-100)
49 | O=C(CNC(=O)c1ccc(/C=C/C(c2cc(Cl)c(F)c(Cl)c2)C(F)(F)F)cc1F)NCC(F)(F)F (stereo not shown) [AC68] | A (50-100)
50 | Cc1cc(/C=C/C(c2cc(Cl)c(F)c(Cl)c2)C(F)(F)F)ccc1C(=O)NCC(=O)NCC(F)(F)F (stereo not shown) [AC69] | A (50-100)
51 | COc1cc(/C=C/C(c2cc(Cl)c(F)c(Cl)c2)C(F)(F)F)ccc1C(=O)NC1CSC1 (stereo not shown) [AC71] | A (50-100)
52 | CCc1cc(/C=C/C(c2cc(Cl)c(F)c(Cl)c2)C(F)(F)F)ccc1C(=O)NCc1ccc(Cl)nc1 (stereo not shown) [AC72] | A (50-100)
53 | O=C(NCc1ccc(C(F)(F)F)nc1)c1ccc(/C=C/C(c2cc(Cl)c(Cl)c(Cl)c2)C(F)(F)F)cc1Br (stereo not shown) [AC75] | A (50-100)
54 | Cc1cc(/C=C/C(c2cc(Cl)c(F)c(Cl)c2)C(F)(F)F)ccc1C(=O)NCc1cc(Cl)ccn1 (stereo not shown) [AC77] | A (50-100)
55 | Cc1cc(/C=C/C(c2cc(Cl)c(Cl)c(Cl)c2)C(F)(F)F)ccc1C(=O)NCC(=O)NCC(F)(F)F (stereo not shown) [AC78] | A (50-100)
56 | O=C(CNC(=O)c1ccc(/C=C/C(c2cc(Cl)c(F)c(Cl)c2)C(F)(F)F)cc1Br)NCC(F)(F)F (stereo not shown) [AC79, (E)-2-Bromo-4-(3-(3,5-dichloro-4-fluorophenyl)-4,4,4-trifluorobut-1-en-1-yl)-N-(2-oxo-2-((2,2,2-trifluoroethyl)amino)ethyl)benzamide] | A (50-100)
57 | CCc1cc(/C=C/C(c2cc(Cl)c(F)c(Cl)c2)C(F)(F)F)ccc1C(=O)NCC(=O)NCC(F)(F)F (stereo not shown) [AC80] | A (50-100)
58 | Cc1cc(/C=C/C(c2cc(Cl)cc(Cl)c2)C(F)(F)F)ccc1C(=O)NCC(=O)NC1CS(=O)(=O)C1 (stereo not shown) [AC81] | A (50-100)
